The text below walks through data of patent US9339503B2, “Tetrahydro-quinazolinone derivatives as TANK and PARP inhibitors” (MERCK PATENT GMBH, priority 2012, dated 2016).

Assay [1] addresses T1, GST-tagged Tankyrase-1 (1023-1327 aa) (Homo sapiens, UniProt O95271).
T1 construct: GST-tagged Tankyrase-1 (1023-1327 aa)
As to the kind of experiment: Tankyrase 1 autoparsylation assay (HTRF enzyme assay). The class given is biochemical. (In general: Time-resolved FRET reads energy transfer from a long-lived donor to a nearby acceptor.)

The next assay has as its target T2, His-tagged Parp-1 (Homo sapiens, UniProt P09874).
T2 construct: purchased Enzo Life Sciences GmbH, Lörrach, Germany
As to the kind of experiment: PARP-1 autoparsylation assay (HTRF). The class given is biochemical. The following applies: read-out: IC50 PARP1. On the procedure:
Biochemical Activity Testing of PARP-1: Autoparsylation Assay
The autoparsylation assay was run in two steps: the enzymatic reaction in which His-tagged Parp-1 transferred biotinylated ADP-ribose/ADP-ribose to itself from biotinylated NAD/NAD as co-substrate and the detection reaction where a time resolved FRET between cryptate labelled anti-His antibody bound to the His tag of the enzyme and Xlent® labelled-streptavidin bound the biotin-parsylation residue was analysed. The autoparsylation activity was detectable directly via the increase in HTRF signal.
The autoparsylation assay was performed as 384-well HTRF® (Cisbio, Codolet, France) assay format in Greiner low volume nb 384-well microtiter plates. 35 nM His-tagged Parp-1 (human, recombinant, Enzo Life Sciences GmbH, Lörrach, Germany) and a mixture of 125 nM bio-NAD (Biolog, Life science Inst., Bremen, Germany) and 800 nM NAD as co-substrate were incubated in a total volume of 6 μl (100 mM Tris/HCl, 4 mM Mg-chloride, 0.01% IGEPAL® CA630, 1 mM DTT, 0.5% DMSO, pH 8, 13 ng/μl activated DNA (BPS Bioscience, San Diego, US)) in the absence or presence of the test compound (10 dilution concentrations) for 150 min at 23° C. The reaction was stopped by the addition of 4 μl of the Stop/detection solution (70 nM SA-Xlent® (Cisbio, Codolet, France), 2.5 nM Anti-His-K® (Eu-labelled anti-His, Cisbio, Codolet, France) in 50 mM HEPES, 400 mM KF, 0.1% BSA, 20 mM EDTA, pH 7.0). After 1 h incubation at room temperature the HTRF was measured with an Envision multimode reader (Perkin Elmer LAS Germany GmbH) at excitation wavelength 340 nm (laser mode) and emission wavelengths 615 nm and 665 nm. The ratio of the emission signals was determined. The full value used was the inhibitor-free reaction. The pharmacological zero value used was Olaparib (LClabs, Woburn, US) in a final concentration of 1 μM. The inhibitory values (IC50) were determined using either the program Symyx Assay Explorer® or Condosseo® from GeneData.

T2 sequence (P09874 whole entry): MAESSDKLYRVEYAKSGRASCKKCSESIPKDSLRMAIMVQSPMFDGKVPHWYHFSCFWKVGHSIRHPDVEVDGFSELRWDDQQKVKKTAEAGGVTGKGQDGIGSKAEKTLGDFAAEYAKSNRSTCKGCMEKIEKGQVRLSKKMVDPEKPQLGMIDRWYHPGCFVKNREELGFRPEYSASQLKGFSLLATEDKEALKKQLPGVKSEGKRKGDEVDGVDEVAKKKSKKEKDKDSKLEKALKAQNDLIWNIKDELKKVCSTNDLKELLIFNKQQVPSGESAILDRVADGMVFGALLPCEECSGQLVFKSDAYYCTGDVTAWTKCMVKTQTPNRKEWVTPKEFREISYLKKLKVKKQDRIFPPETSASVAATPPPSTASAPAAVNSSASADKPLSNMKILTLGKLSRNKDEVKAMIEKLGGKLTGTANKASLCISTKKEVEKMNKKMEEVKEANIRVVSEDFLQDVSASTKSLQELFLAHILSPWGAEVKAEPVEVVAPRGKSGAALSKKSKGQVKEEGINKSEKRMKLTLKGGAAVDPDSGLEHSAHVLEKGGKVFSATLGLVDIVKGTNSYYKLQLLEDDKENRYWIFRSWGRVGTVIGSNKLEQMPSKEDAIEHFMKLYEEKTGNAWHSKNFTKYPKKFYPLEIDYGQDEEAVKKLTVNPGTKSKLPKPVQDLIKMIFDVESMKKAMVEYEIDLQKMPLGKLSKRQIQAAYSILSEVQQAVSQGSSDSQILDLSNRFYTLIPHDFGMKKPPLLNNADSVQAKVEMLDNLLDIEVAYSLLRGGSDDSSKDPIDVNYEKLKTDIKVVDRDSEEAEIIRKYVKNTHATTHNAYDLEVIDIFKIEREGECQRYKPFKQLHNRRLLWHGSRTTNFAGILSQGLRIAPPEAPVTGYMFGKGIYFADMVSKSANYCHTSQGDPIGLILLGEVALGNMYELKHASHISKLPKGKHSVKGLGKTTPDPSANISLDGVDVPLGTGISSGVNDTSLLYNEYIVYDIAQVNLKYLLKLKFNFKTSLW
T1 sequence (O95271 1023-1327): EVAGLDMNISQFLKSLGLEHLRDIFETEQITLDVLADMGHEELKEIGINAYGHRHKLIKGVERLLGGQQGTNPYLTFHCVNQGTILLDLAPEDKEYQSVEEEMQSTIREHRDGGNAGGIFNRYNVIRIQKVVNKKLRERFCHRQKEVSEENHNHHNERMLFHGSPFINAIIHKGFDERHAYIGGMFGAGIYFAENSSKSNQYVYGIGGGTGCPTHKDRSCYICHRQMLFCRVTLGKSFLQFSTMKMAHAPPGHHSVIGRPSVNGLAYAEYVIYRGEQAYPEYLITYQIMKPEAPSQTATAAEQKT

The IC50 is the concentration needed to halve the response being measured. Take `COc1ccc(N2CCN(c3nc4c(c(=O)[nH]3)CCCC4)CC2)cc1` [Compound A3, 2-[4-(4-methoxy-phenyl)-piperazin-1-yl]-5,6,7,8-tetrahydro-3H-quinazolin-4-one]: the half-maximal inhibitory concentration (IC50) in assay [1] was 300 to 3000 nM; on His-tagged Parp-1 it was under 300 nM.
On the same counts, the results for `O=c1[nH]c(N2CCN(c3ccccc3Cl)CC2)nc2c1CCCC2` [Compound A9, 2-[4-(2-Chlorophenyl)piperazin-1-yl]-5,6,7,8-tetrahydro-3H-quinazolin-4-one] are under 300 nM and 300 to 3000 nM.
For the molecule `O=c1[nH]c(N2CCN(c3ccc(F)cc3)CC2)nc2c1CCCC2` [Compound A6, 2-[4-(4-Fluorophenyl)piperazin-1-yl]-5,6,7,8-tetrahydro-3H-quinazolin-4-one], the IC50 (in assay [1]; at His-tagged Parp-1) was 300 to 3000 nM throughout.
For the molecule `COc1cc(F)ccc1N1CCN(c2nc3c(c(=O)[nH]2)CCCC3)CC1` [Compound A36, 2-[4-(4-fluoro-2-methoxy-phenyl)piperazin-1-yl]-5,6,7,8-tetrahydro-3H-quinazolin-4-one], the half-maximal inhibitory concentration (IC50) in assay [1] is under 300 nM; at His-tagged Parp-1, 300 to 3000 nM.
With `COc1ccccc1N1CCN(c2nc3c(c(=O)[nH]2)CCCC3)CC1` [Compound A12, 2-[4-(2-Methoxyphenyl)piperazin-1-yl]-5,6,7,8-tetrahydro-3H-quinazolin-4-one], the results for the IC50 (in assay [1]; on His-tagged Parp-1) were under 300 nM and 300 to 3000 nM, respectively.
The matching figures for `COc1cccc(N2CCN(c3nc4c(c(=O)[nH]3)CCCC4)CC2)c1` [Compound A7, 2-[4-(3-Methoxyphenyl)piperazin-1-yl]-5,6,7,8-tetrahydro-3H-quinazolin-4-one]: under 300 nM and 300 to 3000 nM.
The matching figures for `N#Cc1ccccc1N1CCN(c2nc3c(c(=O)[nH]2)CCCC3)CC1` [Compound A33, 2-[4-(4-oxo-5,6,7,8-tetrahydro-3H-quinazolin-2-yl)piperazin-1-yl]benzonitrile]: under 300 nM and 300 to 3000 nM.
